Data on three compounds can be found in patent publication US20260125381A1, “NOVEL Kv3 CHANNEL MODULATORS” (Merck Sharp & Dohme LLC, priority 2022, published 2026).

The structures appear in SMILES notation.

Assay [1] concerns the target T1, Kv3.1 (Homo sapiens, UniProt P48547).
T1 sequence (P48547 1-511): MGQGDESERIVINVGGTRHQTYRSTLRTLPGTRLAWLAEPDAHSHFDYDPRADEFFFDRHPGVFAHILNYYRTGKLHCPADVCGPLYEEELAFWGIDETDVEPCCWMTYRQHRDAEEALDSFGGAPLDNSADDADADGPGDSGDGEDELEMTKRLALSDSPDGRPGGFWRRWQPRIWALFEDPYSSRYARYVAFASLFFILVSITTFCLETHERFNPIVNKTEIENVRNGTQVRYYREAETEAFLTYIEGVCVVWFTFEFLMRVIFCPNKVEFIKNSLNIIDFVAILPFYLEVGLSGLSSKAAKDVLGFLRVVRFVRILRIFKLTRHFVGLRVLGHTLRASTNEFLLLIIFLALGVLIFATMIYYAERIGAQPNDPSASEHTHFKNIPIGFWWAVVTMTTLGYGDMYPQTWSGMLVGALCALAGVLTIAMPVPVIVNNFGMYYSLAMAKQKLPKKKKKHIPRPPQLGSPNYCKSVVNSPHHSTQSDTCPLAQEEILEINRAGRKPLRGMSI
In words: FLIPR based Tl+ influx assay for positive modulators of Kv3.1. In kind it is cell-based. Also on record: expressed in transfected cells; host or cells: ARF (assay-ready frozen) cells. To be noted: thallium influx, FLIPR Tetra, 1536-well. How it is done: FLIPR Based Tl+ Influx Assay for Characterization of Positive Modulators of Kv3.1
Thallium influx assay was performed following manufacturer instruction with modifications. The major improvement was that the assay was miniaturized in 1536w assay plate to achieve ultrahigh throughput. The cell culture medium used for cell plating was the same medium mentioned above without selection antibiotics. Twenty to twenty four hours prior to the assay day, ARF cells in frozen vials were thawed in 37° C. water bath and washed once in the culture medium. The cell density was adjusted at 8.3×E5/ml and plated in 1536-w PDL coated plates (Aurora. US) at 4 μl/w, using Multidrop Combi (Thermo Fisher Scientific, Waltham, MA USA). Plates were then centrifuged at 300 g for two minutes for cells to achieve uniform settlement. The MicroClime plate lid (Labcyte Inc., San Jose, CA USA) was used to prevent evaporation from the edge wells and minimize the edge effect. Plates were incubated at 37° C., 5% CO2 overnight.
On the next day, the cell plates were further loaded with 3 μl/w of fluorescence dye solution containing all required components in the assay kit as instructed by the manufacturer protocol and incubated at room temperature for 60 min. Control and test compounds were then added into the cell plate by acoustic liquid transfer Echo (Labcyte Inc., San Jose, CA USA). After 10 min incubation with compounds, the cell plate was transferred to FLIPR Tetra platform (Molecular Devices, Sunnyvale, CA, USA) for recording fluorescence signal. The plate was recorded with excitation wavelength at 475-485 nm and emission wavelength at 510-545 nm. Data acquisition was taken at 1 Hz and completed in 130 seconds. After the first 10 s of recording, 3 μl of stimulus buffer was added into each well by liquid handler equipped in the FLIPR platform. The buffer contains 95 mM of Na2SO4 to maintain osmolarity, 7.5 mM of K2SO4 to depolarize membrane and activate the voltage gated Kv3.1 or 3.4 channels and 1 mM of Tl2SO4 to provide 2 mM Tl+ for Tl sensitive fluorescent signal. […]

Assay [2] has as its target T1, Kv3.1. Put plainly: Automated whole cell patch clamp (Qube) on HEK cells overexpressing Kv3.1. In kind it is cell-based. Also on record: expressed in transfected cells; host or cells: HEK cells, stably transfected. The conditions noted are these: stably transfected HEK cells overexpressing Kv3.1. How it is done:
In Vitro Characterization of Positive Modulators of Kv3.1 in Automated Patch Clamp
Automated whole cell patch-clamp was performed on the Qube using stably transfected HEK cell lines overexpressing Kv3.1 channels. Stable cell lines expressing Kv3.2 or Kv3.4 were used for counter-screening. Cells were held at −70 mV. Two depolarizing test pulses to −15 mV (200 ms) and +20 mV (200 ms) were given at a frequency of 0.1 Hz. Kv3.1 current amplitude elicited by test pulses was measured before and after compound addition at steady state. Ten concentrations were tested for each molecule. Raw data from Qube experiments were retrieved from the Qube database and analyzed using the Sophion Analyzer software and DR FIT Spotfire analysis. Apparent compound EC50 values, maximum potentiation, and EC2xIK (effective concentration at which a doubling in K current was observed) were determined using dose response 4 parameter curve fitting.
On the technique in general: Patch clamp records ionic current or voltage across a cell membrane.

What is called EC50 is the concentration needed to bring the measured effect to its halfway point. On Kv3.1 [1], `Cc1ncc2[nH]c(=O)n(-c3cnc(Oc4cccc5c4C(C)(C)CO5)c(Cl)c3C)c2n1` [Example 3, 9-(5-chloro-6-((3,3-dimethyl-2,3-dihydrobenzofuran-4-yl)oxy)-4-methylpyridin-3-yl)-2-methyl-7,9-dihydro-8H-purin-8-one] had an EC50 of 31.2 nM.
`Cc1ncc2[nH]c(=O)n(-c3cnc(Oc4cccc5c4C(C)(C)CO5)c(Cl)c3)c2n1` [Example 2, 9-(5-chloro-6-((3,3-dimethyl-2,3-dihydrobenzofuran-4-yl)oxy)pyridin-3-yl)-2-methyl-7,9-dihydro-8H-purin-8-one]: the values for the EC50 on Kv3.1 [1] and at Kv3.1 [2] were 146 nM and 213 nM, respectively.
For `Cc1cccc(Oc2ccc(-n3c(=O)[nH]c4cccnc43)cn2)c1C` [Example 1, 3-(6-(2,3-dimethylphenoxy)pyridin-3-yl)-1,3-dihydro-2H-imidazo[4,5-b]pyridin-2-one], in that order: 1630 nM and 4350 nM.
